Laboratory results published in US20220315895A1, “METHODS OF MAKING OLIGOPOTENT AND UNIPOTENT PRECURSORS” (Transfusion Health, LLC, priority 2019, published 2022).

How the values were obtained:
Type in all cases: cell-based, human
[1] = system: CD56+ NK lineage cells; test: NK-cell Maturation Culture (Example 41); settings: for % Mature cells: CD3−/CD19−/CD56+ of Live / % Mature cells: CD16+ of Live/CD3−/CD19−/CD56+ / % Mature cells: CD94+ of Live/CD3−/CD19−/CD56+ / % Mature cells: CD161+ of Live/CD3−/CD19−: NK, +Formula I-expanded CD34+ cells
Description: Following 14 days in Lymphoid Progenitor Differentiation Cultures, cells were placed into T- and NK-cell Maturation Cultures.
For NK-cell Maturation Cultures, cells from L Diff Cultures were plated at 25,000 cells per well in TC-treated 48-well plates with 250 μl of NK-cell Differentiation Medium, comprising StemSpan SFEM II medium with StemSpan NK Cell Differentiation Supplement and UM171 (STEMCELL Technologies), prepared according to the manufacturer's instructions, except substituting UM171 at 100 nM for the 1 μM UM729 called for in the protocol.
Following 4 days of culture, NK- and T-cell Maturation Cultures' medias were replenished by adding an equal volume of the same culture media added on day 14. At days 21 and 25 of NK- or T-cell Maturation Cultures, half-media changes were performed by removing half of the total volume of media without disturbing cells and adding media freshly prepared as on day 14.
Following 7 and 14 days in NK- and T-cell Maturation Culture (21 and 28 days from initiation of Lymphoid Differentiation Culture, respectively), cells were stained with antibodies to CD56, CD3, CD161, CD94, and CD16 and analyzed via flow cytometry to quantify T and NK lineage phenotypes.
“Adult Peripheral Blood Unit Equivalents per CBU” was calculated by multiplying each condition's Scaled Output (per CD34+ cell) by 10^6, a conservative estimate of the number of CD34+ cells in an umbilical cord blood unit, then dividing that quantity by the number of CD56+, CD3+ or CD8+ cells typically found in a unit of donated adult peripheral blood: 5×10^7 (CD56+), 10^9 (CD3+) or 3×10^8, according to Invitrogen (https://assets.thermofisher.com/TFS-Assets/LSG/brochures/I-076357%20cell%20count%20table%20topp_WEB.pdf).

[2] = system: CD34+ cells from cord blood; test: HSC Expansion Culture, 21 and 63 days (Example 38); settings: +Formula I Condition (Compound 1.010 8 μM)
Description: CD34+ cells from cord blood were purchased from STEMCELL Technologies. Primary human CD34+ cells were isolated by the supplier from cord blood samples using positive immunomagnetic separation techniques. Cells were thawed, gradually brought to room temperature, then washed.
Cells were placed in overnight culture in StemSpan with 100 ng/ml each of FLT3L, TPO, SCF, and IL-6. Eighteen hours later (day 1), cells were counted and immunophenotyped (flow cytometry on an Invitrogen Attune N×T cytometer).
A portion of these cells were washed and placed directly into various “Differentiation Cultures,” described below. The remainder of cells were placed into “HSC Expansion Culture,” described here. Approximately 1000 live cells were plated into duplicate 25 cm^2 flasks; exact cell numbers dispensed per flask were quantified with flow cytometry for later calculations. […]
Following 21 and 63 days in Expansion Culture, prior to passaging or CD34 re-enrichment, a sample was taken from each flask for analysis of phenotypes (flow cytometry on an Invitrogen Attune N×T cytometer). Cell numbers calculated for these analyses take into account passaging of cells on prior days. Fold expansion of CD34+ cells was calculated by dividing the cell numbers at later days (21 and 63) by the number of CD34+ cells quantified at day 1.

[3] = system: CD34+ cells from cord blood; test: HSC Expansion Culture, 14 to 64 days (Example 42)
Description: Cryopreserved CD34+ cells from cord blood were purchased from STEMCELL Technologies. Primary human CD34+ cells were isolated by the supplier from cord blood samples using positive immunomagnetic separation techniques. Cells were thawed, gradually brought to room temperature, then washed. Cells were primed for expansion with overnight culture in StemSpan SFEM I with 100 ng/mL each of FLT3L, TPO, SCF, and IL-6. Eighteen-to-twenty-four hours later (day 1), cells were counted and immunophenotyped (flow cytometry on an Invitrogen Attune N×T cytometer). Cells were then placed into “HSC Expansion Culture,” described here, or placed directly into Differentiation Culture with STEMCELL's Myeloid StemSpan Myeloid Expansion Supplement (Granulocyte). Media for expanding CD34+ cell numbers was prepared in StemSpan SFEM II (STEMCELL) and added to duplicate 25 cm^2 flasks (4 ml total volume per flask). Expansion Culture conditions also included an antibiotic solution containing penicillin, streptomycin, and amphotericin B to avoid contamination. Additional media components and concentrations used for the conditions tested were as described above in Table 9. All incubations for Expansion Culture took place at 3% oxygen (controlled by nitrogen) and 5% CO2. During Expansion Culture, samples were taken for cell counting and phenotyping. […]

Question: Which results are given for `CC(C)(C)C(=O)Nc1ccc2c(c1)C(O)c1ccccc1-2` (stereo not shown) [Compound 1.010]?
Answer: CD56+ NK cells, of total live cells ([1]; CD34+ cells first expanded for 14 days in +Formula I conditions): 93%; % Mature cells: CD3−/CD19−/CD56+ of Live ([1]; Lymphoid Diff day 21): 91%; % Mature cells: CD16+ of Live/CD3−/CD19−/CD56+ ([1]; Lymphoid Diff day 21): 31%; % Mature cells: CD94+ of Live/CD3−/CD19−/CD56+ ([1]; Lymphoid Diff day 21): 7.8%; % Mature cells: CD161+ of Live/CD3−/CD19− ([1]; Lymphoid Diff day 21): 81%; % Mature cells: CD3−/CD19−/CD56+ of Live ([1]; Lymphoid Diff day 28): 95%; % Mature cells: CD16+ of Live/CD3−/CD19−/CD56+ ([1]; Lymphoid Diff day 28): 16%; % Mature cells: CD94+ of Live/CD3−/CD19−/CD56+ ([1]; Lymphoid Diff day 28): 3.5%; % Mature cells: CD161+ of Live/CD3−/CD19− ([1]; Lymphoid Diff day 28): 89%; fold expansion of CD34+ cells ([2]; 21 days): 600 fold; fold expansion of CD34+ cells ([2]; 63 days): 244,000 fold; fold expansion in CD34+ cell numbers ([3]; +Formula I conditions (Compound 1.010 8 μM), day 14): about 270 fold; fold expansion in CD34+ cell numbers ([3]; +Formula I conditions, day 64): about 86,000 fold
